{"source": "paper PMC5819854", "about": "(ACS Omega, 2017)", "key": {"human D3R": {"target": "human D3R (Homo sapiens, UniProt P35462)", "sequence (P35462 whole entry)": "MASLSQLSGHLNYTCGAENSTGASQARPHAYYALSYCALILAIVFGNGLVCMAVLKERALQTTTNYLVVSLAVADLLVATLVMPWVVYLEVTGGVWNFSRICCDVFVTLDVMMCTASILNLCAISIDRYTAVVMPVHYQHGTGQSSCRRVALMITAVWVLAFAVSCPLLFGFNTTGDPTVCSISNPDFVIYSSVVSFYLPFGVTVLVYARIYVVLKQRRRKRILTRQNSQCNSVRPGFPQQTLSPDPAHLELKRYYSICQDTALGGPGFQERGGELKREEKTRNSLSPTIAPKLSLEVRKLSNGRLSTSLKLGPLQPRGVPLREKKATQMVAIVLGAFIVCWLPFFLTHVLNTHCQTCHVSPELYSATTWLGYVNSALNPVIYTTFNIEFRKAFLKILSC", "assay": "Radioligand competition binding, human D3R"}, "human μOR": {"target": "human μOR (Homo sapiens, UniProt P35372)", "sequence (P35372 whole entry)": "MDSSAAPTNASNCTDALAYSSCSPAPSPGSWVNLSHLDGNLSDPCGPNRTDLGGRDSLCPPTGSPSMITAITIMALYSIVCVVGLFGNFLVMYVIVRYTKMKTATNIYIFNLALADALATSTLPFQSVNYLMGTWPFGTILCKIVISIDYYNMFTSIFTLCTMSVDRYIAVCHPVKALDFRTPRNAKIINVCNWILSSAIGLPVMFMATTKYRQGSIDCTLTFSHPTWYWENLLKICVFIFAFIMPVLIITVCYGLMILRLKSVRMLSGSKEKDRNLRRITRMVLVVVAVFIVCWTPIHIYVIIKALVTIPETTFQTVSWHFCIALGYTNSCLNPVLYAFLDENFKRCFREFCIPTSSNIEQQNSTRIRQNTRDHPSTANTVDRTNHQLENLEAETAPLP", "assay": "biochemical", "assay_type": "binding"}, "human κOR": {"target": "human κOR (Homo sapiens, UniProt P41145)", "sequence (P41145 whole entry)": "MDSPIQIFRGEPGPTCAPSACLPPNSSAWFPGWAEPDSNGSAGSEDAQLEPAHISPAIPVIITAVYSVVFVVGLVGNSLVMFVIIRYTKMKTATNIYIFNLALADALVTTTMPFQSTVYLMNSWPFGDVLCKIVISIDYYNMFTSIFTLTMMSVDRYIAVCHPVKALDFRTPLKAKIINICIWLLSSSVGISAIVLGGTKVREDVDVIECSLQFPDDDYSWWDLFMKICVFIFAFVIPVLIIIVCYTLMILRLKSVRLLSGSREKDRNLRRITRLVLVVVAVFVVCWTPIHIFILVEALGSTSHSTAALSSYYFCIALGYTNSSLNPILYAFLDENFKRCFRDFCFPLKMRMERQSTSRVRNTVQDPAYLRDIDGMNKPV", "assay": "biochemical", "assay_type": "binding"}, "human δOR": {"target": "human δOR (Homo sapiens, UniProt P41143)", "sequence (P41143 whole entry)": "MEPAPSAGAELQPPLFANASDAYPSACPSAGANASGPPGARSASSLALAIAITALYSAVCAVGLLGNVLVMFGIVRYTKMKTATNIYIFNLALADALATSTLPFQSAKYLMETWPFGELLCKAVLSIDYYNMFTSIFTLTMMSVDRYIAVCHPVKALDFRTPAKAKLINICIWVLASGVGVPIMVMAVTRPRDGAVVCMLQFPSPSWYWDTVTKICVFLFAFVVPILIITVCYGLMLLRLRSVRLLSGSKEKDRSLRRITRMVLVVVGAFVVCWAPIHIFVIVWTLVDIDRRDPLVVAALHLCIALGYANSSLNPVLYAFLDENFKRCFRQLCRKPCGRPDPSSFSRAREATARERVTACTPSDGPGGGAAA", "assay": "biochemical", "assay_type": "binding"}}, "note": "Like-named read-outs stand apart in the source and are kept apart here."}
{"compound": "2-(4-Fluorobiphen-2-yl)-N-(4-(4-(3-methoxyphenyl)piperazine-1-yl)but-1-yl)azocarboxamide [3e]", "values": [{"measurement": "affinity for the D3 receptor (in words)", "setting": "human D3R", "value": "sub-nanomolar"}, {"measurement": "D3 selectivity over 5-HT1A, Ki(5-HT1A/D3)", "setting": "human D3R; ratio of Ki values", "value": 43}, {"measurement": "increase of D3 affinity compared to reference compound 3a", "setting": "human D3R; vs ortho- and meta-unsubstituted 3a", "value": 10, "unit": "fold"}]}
{"compound": "2-(4-Fluoro-2-methoxyphenyl)-N-(4-(4-(2-methoxyphenyl)piperazine-1-yl)but-1-yl)azocarboxamide [3d]", "values": [{"measurement": "affinity for the D3 receptor (in words)", "setting": "human D3R", "value": "single-digit"}]}
{"compound": "CN(C)C1(CNC(=O)/N=N/c2ccc(F)cc2)CCCCC1", "note": "[4a, (E)-N-((1-(Dimethylamino)cyclohexyl)methyl)-2-(4-fluorophenyl)diazene-1-carboxamide]", "values": [{"measurement": "Ki", "setting": "human μOR", "value": "2.5 ± 1.1", "unit": "µM"}, {"measurement": "selectivity between the κ and μ opioid receptor subtypes (in words)", "setting": "human μOR", "value": "did not show any selectivity"}, {"measurement": "Ki", "setting": "human κOR", "value": "3.1 ± 0.78", "unit": "µM"}]}
{"compound": "Cc1cc(/N=N/C(=O)NCC2(N(C)C)CCCCC2)ccc1F", "note": "[4c, (E)-N-((1-(Dimethylamino)cyclohexyl)methyl)-2-(4-fluoro-3-methylphenyl)diazene-1-carboxamide]", "values": [{"measurement": "Ki", "setting": "human μOR", "value": "1.1 ± 0.35", "unit": "µM"}, {"measurement": "affinity for the μ-opioid receptor (in words)", "setting": "human μOR", "value": "micromolar"}, {"measurement": "subtype selectivity Ki(δOR/μOR)", "setting": "human μOR", "value": 27}, {"measurement": "subtype selectivity Ki(κOR/μOR)", "setting": "human μOR", "value": 4.4}, {"measurement": "Ki", "setting": "human κOR", "value": "4.8 ± 1.8", "unit": "µM"}]}
{"compound": "Cc1cc(F)ccc1/N=N/C(=O)NCC1(N(C)C)CCCCC1", "note": "[4b, (E)-N-((1-(Dimethylamino)cyclohexyl)methyl)-2-(4-fluoro-2-methylphenyl)diazene-1-carboxamide]", "values": [{"measurement": "Ki", "setting": "human μOR", "value": "4.9 ± 0.35", "unit": "µM"}, {"measurement": "Ki", "setting": "human κOR", "value": "6.1 ± 1.8", "unit": "µM"}]}
{"compound": "(E)-N-((1-(Dimethylamino)cyclohexyl)methyl)-2-(4-fluorobiphen-2-yl)diazene-1-carboxamide [4e]", "values": [{"measurement": "Ki", "setting": "human μOR; read-out: Ki μOR", "value": "2.1 ± 0.57", "unit": "µM"}, {"measurement": "Ki", "setting": "human κOR; read-out: Ki κOR", "value": "4.8 ± 1.3", "unit": "µM"}]}
{"compound": "COc1cc(F)ccc1/N=N/C(=O)NCC1(N(C)C)CCCCC1", "note": "[4d, (E)-N-((1-(Dimethylamino)cyclohexyl)methyl)-2-(4-fluoro-2-methoxyphenyl)diazene-1-carboxamide]", "values": [{"measurement": "Ki", "setting": "human δOR", "value": "38 ± 38", "unit": "µM"}, {"measurement": "Ki", "setting": "human μOR", "value": "7.4 ± 5.2", "unit": "µM"}, {"measurement": "selectivity between the κ and μ opioid receptor subtypes (in words)", "setting": "human μOR", "value": "did not show any selectivity"}, {"measurement": "Ki", "setting": "human κOR", "value": "7.2 ± 1.8", "unit": "µM"}]}
